Measured values taken from paper PMC11404609, “Gut microbiota-mediated C-sulfonate metabolism impairs the bioavailability and anti-cholestatic efficacy of andrographolide” (Gut Microbes, 2024).
Entries after “also recorded” stand apart in the source; their conditions may differ.

What was measured:
[1] = tested on: ANIT-induced cholestatic liver injury; test: Anti-cholestatic effect in ANIT-induced cholestatic liver injury (plasma ALT, AST, TBA, TBIL, liver H&E); format: in vivo, mice; conditions: for anti-cholestatic effect: AP 200 mg/kg
Experimental: To investigate the impact of gut microbiota on the anti-cholestatic effect of AP, Control and ABX mice were divided into five groups, respectively: Vehicle, AP (200 mg/kg), ANIT (50 mg/kg), ANIT+AP (200 mg/kg), and ANIT+S-AMe (100 mg/kg).
Similarly, to investigate the impact of C-sulfonate metabolism on the anti-cholestatic effect of AP, mice were randomly divided into two groups: p.o. group (oral administration) and i.p. group (intraperitoneal injection). The p.o. group was further divided into six subgroups: Vehicle, AP (400 mg/kg), ANIT (50 mg/kg), ANIT+AP (100 mg/kg), ANIT+AP (200 mg/kg), ANIT+AP (400 mg/kg). While the i.p. group was divided into five subgroups: Vehicle, AP (200 mg/kg), ANIT (50 mg/kg), ANIT+AP (100 mg/kg), ANIT+AP (200 mg/kg).
Additionally, to investigate the effect of APS reductase inhibitor on the anti-cholestatic effect of AP, mice were randomly divided into Control and Inhibitor groups, each further divided into five subgroups: Vehicle, AP (200 mg/kg), ANIT (50 mg/kg), ANIT+AP (200 mg/kg), and ANIT+S-AMe (100 mg/kg). The mice received APS reductase inhibitor bromocriptine mesylate by oral gavage (20 mg/kg, p.o.) 2 weeks before AP treatment and continued until the end of the experiment. Furthermore, to investigate the important role of FXR in the anti-cholestatic effect of AP, WT and Fxr^-/- mice were, respectively, divided into the following groups: Vehicle, ANIT (50 mg/kg), and ANIT+AP (200 mg/kg).
In pharmacodynamic experiments, mice were administered AP at various dosages through different routes daily for a duration of 2 weeks. Additionally, S-AMe was administered at a dosage of 100 mg/kg via intraperitoneal injection (i.p.) daily for 2 weeks. A single dose of ANIT (50 mg/kg, p.o.) was administered 48 h before euthanizing the mice. At the conclusion of each experiment, the mice were euthanized, and blood samples were collected for biochemical analysis and tissue samples for histological examination and UPLC-MS/MS analysis.
Biochemical indicators of cholestatic liver injury, including alanine aminotransferase (ALT), aspartate aminotransferase (AST), total bile acid (TBA), and total bilirubin (TBIL), were assessed using assay kits obtained from Nanjing JianCheng Bioengineering Institute (Nanjing, China). The experimental procedures were conducted in accordance with the protocols provided by the manufacturer. Fresh liver tissues were fixed in 10% formalin, and prepared as 4-μm paraffin sections. These sections were stained with hematoxylin and eosin for examination of liver histopathology. The stained tissue sections were then observed and captured under an optical microscope for further analysis. Liver histological changes were quantified using a slightly modified scoring system published previously.[45] The scoring system comprised four histological features that were evaluated semi-quantitatively: necrosis and fibrosis (0–4), steatosis (0–3), lobular inflammation (0–2), and hepatocellular ballooning (0–2). The liver necrosis and fibrosis areas were quantified by area fraction analysis (Image J software, V1.8.0, National Institutes of Health, USA).[46]

gut microbiota = test: Shotgun metagenomic sequencing of cecum samples after AP treatment; format: in vivo; conditions: mice cecum, AP 400 mg/kg, oral, 14 d
Experimental: Shotgun metagenomic sequencing was performed using cecum samples from mice after AP treatment (400 mg/kg, oral, 14 d). DNA was extracted by a PF Mag-Bind DNA Kit (Omega Bio-tek, USA) and qualified by 1% Agarose gel electrophoresis. Extracted DNA was fragmented by Covaris M220 (Gene Company Limited, China) and screened at approximately 400 bp fragments for paired-end library construction. NEXTFLEX® Rapid DNA-Seq (Bioo Scientific, USA) was used to build paired-end library construction. The Illumina NovaSeq 6000 (Illumina, USA) sequencing platform was used for metagenomic sequencing. Fastp was used to perform quality cropping on the adapter sequences of the 3’ and 5’ ends of reads, preserving high-quality paired-end reads and single-end reads. BWA (version 0.7.17) was used to construct the reads with the host DNA sequence and remove contaminated reads with high alignment similarity. MEGAHIT (version 1.1.2) was used to splice and assemble the optimized sequence. SOAP aligner (version soap2.21release) was used to compare the high-quality reads of each sample with the non-redundant gene set (95% identity) and calculate the abundance information of genes in the corresponding samples. DIAMOND (version 2.0.11) was used to annotate species taxonomy, and KEGG function. Data was deposited into the NCBI Sequence Read Archive (SRA) database.

C=C1CC[C@@H]2[C@](C)(CO)[C@H](O)CC[C@@]2(C)[C@@H]1C/C=C1/C(=O)OC[C@H]1O [AP, Andrographolide]
effect on ANIT-induced elevation of plasma biochemical indicators, liver cell necrosis, inflammatory cell infiltration ([1]; ABX mice (intestinal flora depleted), AP 200 mg/kg p.o., 2 weeks): markedly ameliorated | protective effect against ANIT-induced liver injury ([1]; Control mice with intact intestinal flora, AP 200 mg/kg p.o., 2 weeks): weak protective effect | anti-cholestatic effect ([1]; Fxr^-/- mice): completely abolished; also recorded: no protective effect | anti-cholestatic effect ([1]; WT mice): superior anti-cholestatic effect; also recorded: significant effects | alleviation of ANIT-induced cholestatic liver injury ([1]; mice, AP 200 mg/kg p.o. alone (inhibitor study)): did not exhibit significant alleviation | alleviation of ANIT-induced cholestatic liver injury ([1]; mice, AP 200 mg/kg p.o. in combination with APS reductase inhibitor bromocriptine mesylate 20 mg/kg p.o.): notable amelioration of liver injury | anti-cholestatic effect vs ANIT group ([1]; mice, intraperitoneal AP 100 mg/kg or 200 mg/kg): superior anti-cholestatic effect | hepatoprotective effect vs ANIT group ([1]; mice, oral AP 400 mg/kg): significant efficacy | expression of APS reductase / growth of APS reductase-producing gut microbiota (gut microbiota): did not induce significant alterations | expression of Enterococcus, Lactobacillus, and Escherichia bacteria (gut microbiota): did not suppress
